Assay results reported in ChEMBL document CHEMBL1201862, “PubChem BioAssay data set” (2004).
Where a name gives a salt, the structure may show the parent alone. Calls of active or inactive are those of the source.

Columns and labels:
Cysteine protease ATG4B = target: T1, Cysteine protease ATG4B (Homo sapiens, UniProt Q9Y4P1); format: functional;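 further: Fluorescence-based dose-response confirmation assay measuring inhibition of ATG4B activity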
T1 sequence (Q9Y4P1 whole entry): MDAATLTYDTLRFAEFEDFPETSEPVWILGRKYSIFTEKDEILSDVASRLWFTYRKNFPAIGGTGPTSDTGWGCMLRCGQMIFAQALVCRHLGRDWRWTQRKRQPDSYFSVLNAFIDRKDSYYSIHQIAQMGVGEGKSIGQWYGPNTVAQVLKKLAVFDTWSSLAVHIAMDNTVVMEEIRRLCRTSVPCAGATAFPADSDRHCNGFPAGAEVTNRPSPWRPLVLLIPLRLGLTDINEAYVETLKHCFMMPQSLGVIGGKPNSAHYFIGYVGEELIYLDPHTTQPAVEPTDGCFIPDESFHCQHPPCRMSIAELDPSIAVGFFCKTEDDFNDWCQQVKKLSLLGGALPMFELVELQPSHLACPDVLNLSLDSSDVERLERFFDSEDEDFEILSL

Phospholipase A2 = Phospholipase A2 (Homo sapiens, UniProt P04054); format: functional;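 further: confirmatory dose-response counterscreen on phospholipase A2, testing hits that came from an ultra-high-throughput screen for ATG4B inhibitors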
Sequence of Phospholipase A2 (P04054 whole entry): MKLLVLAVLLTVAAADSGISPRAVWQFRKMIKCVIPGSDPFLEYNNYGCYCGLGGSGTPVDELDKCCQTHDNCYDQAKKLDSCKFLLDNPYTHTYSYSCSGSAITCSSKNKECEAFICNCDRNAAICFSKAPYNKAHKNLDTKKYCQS

Caspase-3 = target: T2, Caspase-3 (Homo sapiens, UniProt P42574); format: functional;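 further: Dose-response selectivity test against caspase-3 for candidate inhibitors of sentrin-specific proteases (SENPs)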
T2 sequence (P42574 whole entry): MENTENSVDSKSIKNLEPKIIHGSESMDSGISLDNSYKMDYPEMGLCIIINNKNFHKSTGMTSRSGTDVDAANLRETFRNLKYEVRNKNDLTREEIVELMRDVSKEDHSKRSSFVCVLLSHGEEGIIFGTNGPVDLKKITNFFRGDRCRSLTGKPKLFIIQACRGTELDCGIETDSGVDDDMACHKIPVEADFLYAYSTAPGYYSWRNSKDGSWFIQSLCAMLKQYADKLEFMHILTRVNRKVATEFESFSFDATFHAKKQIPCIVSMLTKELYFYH

[1] = target: T3, Sentrin-specific protease 7 (Homo sapiens, UniProt Q9BQF6); format: functional;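 further: Luminescence-based dose-response confirmation of ultra-high-throughput screening hits, measuring inhibition of SENP7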
T3 sequence (Q9BQF6 whole entry): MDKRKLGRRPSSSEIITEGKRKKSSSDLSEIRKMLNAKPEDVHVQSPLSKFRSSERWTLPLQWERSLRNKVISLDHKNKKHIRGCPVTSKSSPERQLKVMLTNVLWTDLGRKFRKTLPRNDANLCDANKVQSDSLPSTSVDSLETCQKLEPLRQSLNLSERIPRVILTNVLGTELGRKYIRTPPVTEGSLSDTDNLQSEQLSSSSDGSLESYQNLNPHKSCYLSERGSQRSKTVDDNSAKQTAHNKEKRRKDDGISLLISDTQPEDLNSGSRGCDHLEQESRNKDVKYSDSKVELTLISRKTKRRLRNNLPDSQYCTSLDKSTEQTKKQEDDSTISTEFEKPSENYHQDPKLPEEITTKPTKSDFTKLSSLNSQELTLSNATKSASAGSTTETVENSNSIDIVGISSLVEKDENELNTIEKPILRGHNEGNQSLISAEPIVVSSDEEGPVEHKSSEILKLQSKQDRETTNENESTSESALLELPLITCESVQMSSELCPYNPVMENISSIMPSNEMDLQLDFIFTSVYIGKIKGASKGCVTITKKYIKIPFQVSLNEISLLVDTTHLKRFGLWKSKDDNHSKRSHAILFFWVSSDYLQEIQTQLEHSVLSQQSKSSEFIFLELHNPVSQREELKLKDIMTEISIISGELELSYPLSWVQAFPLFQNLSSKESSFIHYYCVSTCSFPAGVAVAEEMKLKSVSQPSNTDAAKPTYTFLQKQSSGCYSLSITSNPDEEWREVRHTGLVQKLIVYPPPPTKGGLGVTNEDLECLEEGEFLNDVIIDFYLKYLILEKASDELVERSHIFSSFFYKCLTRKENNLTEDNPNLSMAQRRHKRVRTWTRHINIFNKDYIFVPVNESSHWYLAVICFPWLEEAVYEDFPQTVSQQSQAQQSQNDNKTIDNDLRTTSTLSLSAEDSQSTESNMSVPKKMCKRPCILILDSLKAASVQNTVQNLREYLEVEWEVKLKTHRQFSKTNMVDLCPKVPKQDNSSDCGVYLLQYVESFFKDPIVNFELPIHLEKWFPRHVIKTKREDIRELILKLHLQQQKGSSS

[2] = target: T4, Sentrin-specific protease 6 (Homo sapiens, UniProt Q9GZR1); format: functional;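 further: Luminescence-based dose-response confirmatory assay of SENP6 inhibition, following up an ultra-high-throughput screen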
T4 sequence (Q9GZR1 whole entry): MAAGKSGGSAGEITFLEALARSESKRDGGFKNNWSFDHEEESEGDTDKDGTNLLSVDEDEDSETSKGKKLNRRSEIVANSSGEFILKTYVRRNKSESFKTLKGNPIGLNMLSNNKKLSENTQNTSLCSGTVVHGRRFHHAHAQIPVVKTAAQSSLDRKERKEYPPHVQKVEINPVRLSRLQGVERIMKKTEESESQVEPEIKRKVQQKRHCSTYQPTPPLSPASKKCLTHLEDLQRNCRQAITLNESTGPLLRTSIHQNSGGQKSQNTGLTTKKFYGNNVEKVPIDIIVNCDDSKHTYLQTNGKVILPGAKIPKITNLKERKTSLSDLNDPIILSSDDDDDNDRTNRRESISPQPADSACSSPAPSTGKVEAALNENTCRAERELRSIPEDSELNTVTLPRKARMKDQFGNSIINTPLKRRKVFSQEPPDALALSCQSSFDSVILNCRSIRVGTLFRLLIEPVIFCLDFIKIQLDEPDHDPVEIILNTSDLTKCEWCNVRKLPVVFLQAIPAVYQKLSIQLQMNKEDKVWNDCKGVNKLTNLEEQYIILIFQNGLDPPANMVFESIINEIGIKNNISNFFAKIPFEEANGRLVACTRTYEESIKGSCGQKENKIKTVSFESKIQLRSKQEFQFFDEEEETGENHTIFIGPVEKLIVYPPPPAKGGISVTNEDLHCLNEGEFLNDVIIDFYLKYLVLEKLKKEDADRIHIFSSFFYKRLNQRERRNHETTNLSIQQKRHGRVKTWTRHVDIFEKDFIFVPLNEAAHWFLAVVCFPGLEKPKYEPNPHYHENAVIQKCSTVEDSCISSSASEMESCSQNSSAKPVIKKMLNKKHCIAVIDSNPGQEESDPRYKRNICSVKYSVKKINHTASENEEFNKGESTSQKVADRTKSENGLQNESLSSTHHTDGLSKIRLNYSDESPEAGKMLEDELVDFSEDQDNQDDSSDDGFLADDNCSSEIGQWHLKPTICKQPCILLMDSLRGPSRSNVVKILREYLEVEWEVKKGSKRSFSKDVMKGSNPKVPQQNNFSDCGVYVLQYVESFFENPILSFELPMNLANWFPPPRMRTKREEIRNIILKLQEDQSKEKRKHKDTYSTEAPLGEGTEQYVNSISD

[3] = target: T5, Sentrin-specific protease 8 (Homo sapiens, UniProt Q96LD8); format: functional;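 further: luminescence read-out of SENP8 inhibition, dose-response confirmation following an ultra-high-throughput screen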
T5 sequence (Q96LD8 whole entry): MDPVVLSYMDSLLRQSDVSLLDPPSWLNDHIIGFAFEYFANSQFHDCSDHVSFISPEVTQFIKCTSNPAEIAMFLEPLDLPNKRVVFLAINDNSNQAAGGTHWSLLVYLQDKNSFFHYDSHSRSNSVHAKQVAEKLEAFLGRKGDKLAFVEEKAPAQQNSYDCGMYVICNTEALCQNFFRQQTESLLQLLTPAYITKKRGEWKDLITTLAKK

Cytochrome P450 2C9 = Cytochrome P450 2C9 (Homo sapiens, UniProt P11712)
Sequence of Cytochrome P450 2C9 (P11712 whole entry): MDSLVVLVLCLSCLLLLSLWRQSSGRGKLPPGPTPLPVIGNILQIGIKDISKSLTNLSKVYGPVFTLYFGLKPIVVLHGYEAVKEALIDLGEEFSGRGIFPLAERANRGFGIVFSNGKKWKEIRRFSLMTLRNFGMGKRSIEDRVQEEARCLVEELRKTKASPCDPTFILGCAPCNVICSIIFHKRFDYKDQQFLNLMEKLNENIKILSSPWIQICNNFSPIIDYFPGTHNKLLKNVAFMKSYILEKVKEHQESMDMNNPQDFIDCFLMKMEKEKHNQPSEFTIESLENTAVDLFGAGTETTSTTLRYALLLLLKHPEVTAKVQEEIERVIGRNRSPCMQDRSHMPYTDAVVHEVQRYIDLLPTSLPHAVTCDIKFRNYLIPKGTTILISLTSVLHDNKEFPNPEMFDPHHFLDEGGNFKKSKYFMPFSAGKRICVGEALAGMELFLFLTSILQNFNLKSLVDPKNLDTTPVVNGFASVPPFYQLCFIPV

[4] = target: T6, High affinity choline transporter 1 (Homo sapiens, UniProt Q9GZV3); experiment: CHT inhibitors, dose response, cell-based, 5-point CRC, membrane potential dye (AID 504840); format: functional
T6 sequence (Q9GZV3 whole entry): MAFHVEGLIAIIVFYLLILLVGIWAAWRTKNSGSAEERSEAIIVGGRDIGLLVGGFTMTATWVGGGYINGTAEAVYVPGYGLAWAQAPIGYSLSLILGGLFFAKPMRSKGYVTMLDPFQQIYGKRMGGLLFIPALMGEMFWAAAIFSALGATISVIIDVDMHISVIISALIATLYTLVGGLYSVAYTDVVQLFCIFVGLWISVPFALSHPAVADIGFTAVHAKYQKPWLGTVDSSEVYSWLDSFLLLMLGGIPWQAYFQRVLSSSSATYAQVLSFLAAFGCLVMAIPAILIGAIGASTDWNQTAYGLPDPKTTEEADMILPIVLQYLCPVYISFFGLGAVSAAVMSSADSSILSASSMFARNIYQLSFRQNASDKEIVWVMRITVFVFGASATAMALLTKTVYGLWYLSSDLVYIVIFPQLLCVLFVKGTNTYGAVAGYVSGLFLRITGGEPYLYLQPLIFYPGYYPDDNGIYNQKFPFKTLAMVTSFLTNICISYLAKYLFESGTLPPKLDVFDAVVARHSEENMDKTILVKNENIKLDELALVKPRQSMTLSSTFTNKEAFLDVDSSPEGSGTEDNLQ

[5] = target: T6, High affinity choline transporter 1; experiment: CHT inhibitors, dose response, cell-based, 10-point CRC, membrane potential dye (AID 588401); format: functional;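 further: membrane potential dye fluorescence of choline-evoked depolarization via CHT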
[6] = target: Adenosylmethionine-8-amino-7-oxononanoate aminotransferase (Mycobacterium tuberculosis, UniProt P9WQ81); experiment: Mycobacterium tuberculosis BioA enzyme inhibitor Measured in Biochemical System Using Plate Reader - 2163-02_Inhibitor_Dose_CherryPick_Activity.; format: functional, Mycobacterium tuberculosis UT205
Sequence of Adenosylmethionine-8-amino-7-oxononanoate aminotransferase (P9WQ81 whole entry): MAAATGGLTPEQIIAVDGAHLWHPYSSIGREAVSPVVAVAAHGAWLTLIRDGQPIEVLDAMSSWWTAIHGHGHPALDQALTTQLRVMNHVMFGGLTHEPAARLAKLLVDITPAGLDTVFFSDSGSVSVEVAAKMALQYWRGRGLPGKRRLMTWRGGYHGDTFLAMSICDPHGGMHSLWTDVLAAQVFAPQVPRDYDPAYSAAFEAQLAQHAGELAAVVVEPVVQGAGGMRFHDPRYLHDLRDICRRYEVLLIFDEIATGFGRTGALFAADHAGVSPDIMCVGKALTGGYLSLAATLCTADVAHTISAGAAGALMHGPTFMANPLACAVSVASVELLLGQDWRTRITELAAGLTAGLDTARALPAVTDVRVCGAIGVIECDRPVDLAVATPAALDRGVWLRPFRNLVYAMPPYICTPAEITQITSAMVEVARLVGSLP

[7] = target: Eukaryotic translation initiation factor 4E (Mus musculus, UniProt P63073); experiment: eIF4E–eIF4G protein interaction inhibitors, dose response, biochemical, TR-FRET (AID 855); format: functional;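 further: potency for disrupting eIF4E binding to eIF4GI seen as loss of FRET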
Sequence of Eukaryotic translation initiation factor 4E (P63073 whole entry): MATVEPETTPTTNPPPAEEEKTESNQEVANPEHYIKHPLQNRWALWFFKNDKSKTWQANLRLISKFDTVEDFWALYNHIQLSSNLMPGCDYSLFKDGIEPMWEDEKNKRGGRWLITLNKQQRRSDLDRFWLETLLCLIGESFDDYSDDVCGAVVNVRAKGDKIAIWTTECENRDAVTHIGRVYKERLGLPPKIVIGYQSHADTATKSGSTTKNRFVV

[8] = target: Heat shock protein HSP 90-alpha (Homo sapiens, UniProt P07900); format: functional, organism-based
[9] = Shn3 3'UTR reporter inhibitors, dose response, cell-based, Clone20 osteoblasts, firefly luciferase, cherry-picked (AID 624132); format: functional;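 further: firefly luciferase luminescence from reporter carrying the Shn3 3'UTR in osteoblasts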
P388/ADR = experiment: cells; format: functional; conditions: Mus musculus
[10] = HepG2 cell cytotoxicity, dose response, cytotoxicity control for Shn3 inhibitor project, CellTiter-Glo, cherry-picked (AID 624134); format: functional, cell-based
[11] = control 3'UTR Renilla luciferase suppression, dose response, counter-screen for Shn3 inhibitor project, cell-based, Clone20-Shn3RL, cherry-picked (AID 624133); format: functional
SN12K1 = experiment: cells; format: functional; conditions: Homo sapiens
P388 = experiment: cells; format: functional; conditions: Mus musculus
[12] = cytotoxicity in KRAS-transformed pancreatic duct cells, primary screen, cell-based, fluorescence, HTS (AID 431); format: functional; conditions: Homo sapiens;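 further: cell line used: HPDE-C7K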
[13] = Luminescence Cell-Based Dose Retest to Confirm Inhibitors of Cancer Stem Cells. [Related pubchem assays (depositor defined):AID2717, AID2721]; format: functional; conditions: Homo sapiens
[14] = target: T7, Ubiquitin-conjugating enzyme E2 N (Homo sapiens, UniProt P61088); format: functional;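 further: Dose-response confirmation in a TR-FRET assay detecting UBC13-driven polyubiquitin chain formation, inhibition measured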
T7 sequence (P61088 whole entry): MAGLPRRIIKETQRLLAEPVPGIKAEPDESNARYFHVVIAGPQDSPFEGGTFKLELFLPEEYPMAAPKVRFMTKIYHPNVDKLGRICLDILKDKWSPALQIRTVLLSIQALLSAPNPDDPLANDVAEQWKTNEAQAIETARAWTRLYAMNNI

Cc1noc(C)c1COc1ccc(C(=O)OCC(=O)NCc2ccccc2Cl)cc1
IC50 (Cysteine protease ATG4B): 22.5 µM (inactive) | IC50 (Phospholipase A2): 6.59 µM (active)

NC(=O)c1ccc(-c2ncc(-c3ccccc3)o2)cc1
IC50 (Caspase-3): 13.1 µM (active) | IC50 [1]: 6.11 µM (active) | IC50 [2]: 33.9 µM (active) | IC50 [3]: 51.7 µM (active) | AC50 (Cytochrome P450 2C9): 2.51 µM (inconclusive)

O=[N+]([O-])c1ccc(Sc2ncc3ccccn23)nc1
IC50 [4]: 3.9 µM (active) | IC50 [5]: 1.13 µM (active)

C[C@@H](C(=O)N1CCN(Cc2ccc3c(c2)OCO3)CC1)n1nnc2ccccc2c1=O
AC50 [6]: 4.11 µM (active)

O=C(COC(=O)c1ccc([N+](=O)[O-])s1)NCc1ccccc1
IC50 (Caspase-3): 23.4 µM (active) | IC50 [1]: 19.1 µM (active) | IC50 [2]: 12.8 µM (active) | IC50 [3]: 12.9 µM (active)

CCn1cnc2sc(-c3ccccc3)cc2c1=O
IC50 (Caspase-3): 12.5 µM (active) | IC50 [1]: 9.66 µM (active) | IC50 [2]: 32.2 µM (active) | IC50 [3]: 43.8 µM (active)

O=c1[nH]ncc(N2CCCC2)c1Cl
IC50 [7]: 50 µM (inactive) | IC50 [4]: 8.71 µM (active) | IC50 [5]: 7.51 µM (active)

NC(=O)/C(=C\c1ccccc1)NC(=O)/C=C/c1ccccc1
IC50 (Cysteine protease ATG4B): 19.1 µM (active) | IC50 (Phospholipase A2): 15.5 µM (active)

O=C(Nc1ccccc1N1CCN(c2ccccc2)CC1)c1ccccc1
IC50 (Cysteine protease ATG4B): 9.27 µM (active) | IC50 (Phospholipase A2): 6.48 µM (active)

CCCCCCCCOC(=O)c1cc([N+](=O)[O-])c(Sc2[nH]cnc3ncnc2-3)c([N+](=O)[O-])c1
AC50 [8]: 2.18 µM (active) | AC50 [9]: 2.81 µM (active) | GI50 (P388/ADR): 0.152 µM (active) | AC50 [10]: 11.5 µM (active) | AC50 [11]: 10.6 µM (active) | GI50 (SN12K1): 0.912 µM (active) | GI50 (P388): 0.184 µM (active)

CCC(Sc1nc2ccsc2c(=O)n1Cc1ccc(C(=O)O)cc1)C(=O)Nc1cccc(OC)c1 (stereo unspecified)
AC50 [6]: 4.08 µM (active)

CCCCCCCC(=O)O[C@H]1[C@H]2[C@@H](CC1(C)C)C(=O)[C@]13O[C@H]1C(=O)[C@]1(CO1)[C@]23C
GI50 (P388/ADR): 0.1 µM (active) | GI50 (SN12K1): 3.33 µM (inactive) | GI50 (P388): 0.0904 µM (active)

CCCCc1oc2ccccc2c1C(=O)c1cc(I)c(OCCN(CC)CC)c(I)c1 [AMIODARONE HYDROCHLORIDE]
EC50 [12]: 7.82 µM (active) | AC50 [13]: 4.87 µM (active) | IC50 [14]: > 20 µM (inactive) | GI50 (SN12K1): 3.77 µM (inactive) | GI50 (P388): 5.06 µM (inactive)
